Source: publication PMC4189701 (Drug Design, Development and Therapy, 2014)
Where “and” joins values, the source holds several entries; their conditions need not be identical. Equal entries are not always repeated. Entries after “also recorded” stand apart in the source; their conditions may differ. Where two headings read alike, the source gives them in different places.

Tests used:
[1] = cited from earlier work; for dose proportionality of Cmax or AUC: healthy subjects
CYP3A = CYP3A enzyme activity; assay type: in vitro ADME; settings: primary human hepatocytes
CYP3A4 mRNA = CYP3A4 mRNA content in primary human hepatocytes; assay type: in vitro ADME; settings: human
K103N = settings: major efavirenz-resistant mutation; ref unpublished data; cited from earlier work
[2] = Pharmacokinetics over single- and multiple-dose studies together; assay type: in vivo, human
[3] = Tolerability over the whole study; assay type: in vivo, human
[4] = test system: CYP3A4 messenger ribonucleic acid (mRNA); experiment: CYP3A4 mRNA content in primary human hepatocytes; assay type: in vitro ADME; settings: summary in words
[5] = test system: cytochrome P450 (CYP)-3A4; settings: human hepatocytes; ref unpublished data; cited from earlier work
[6] = test system: laboratory strains and clinical HIV-1 isolates; settings: preclinical; ref unpublished data; cited from earlier work
Tolerability [7] = assay type: in vivo, human; settings: single dose
[8] = mice and dogs; preclinical studies; cited from earlier work
[9] = Single-dose pharmacokinetics in healthy subjects; assay type: in vivo, human; settings: for AUC(0-inf) / AUC(0-t) / Cmax / Tmax / half-life: human, plasma, oral; for AUC∞/dose / Cmax/dose / fe / CL/F: mean ± SD; for fe: unchanged in urine
Tolerability [10] = assay type: in vivo, human
Multiple-dose = assay type: in vivo, human; settings: for steady state attained: RM-ANOVA of predose concentrations; for Accumulation index: AUC144–168h/AUC0–24h; for Accumulation index / AUCτ,ss/dose / CL/F / Cmax,ss/dose / fe: mean ± SD; for fe: unchanged in urine
[11] = 75–600 mg, single or multiple doses

## Cc1ccnc2c1NC(=O)c1cccnc1N2C1CC1 [nevirapine]
[1]
  autoinduction phenomenon: autoinduction phenomenon has also been observed
[1]; single oral administration 2.5–400 mg
  dose proportionality of Cmax or AUC: increased less than dose-proportionally

## CCC1(c2ccccc2)C(=O)NC(=O)NC1=O [Phenobarbital, reference compound]
CYP3A; human, probe testosterone
  fold induction at 1 mM: 9.9
CYP3A4 mRNA
  fold induction at 1 mM: 8.9

## CCn1c(C(=O)c2cc(C)cc(C#N)c2)c(C(C)C)c(=O)[nH]c1=O [KM-023, 3-[3-ethyl-5-isopropyl-2,6-dioxo-1,2,3,6-tetrahydro-pyrimidine-4-carbonyl]-5-methyl benzonitrile]
K103N
  activity against K103N: showed activity against K103N
[2]; [11]
  dose proportionality of Cmax and AUC: Dose proportionality was not observed; also recorded: less than dose-proportional nonlinear pharmacokinetics
  pharmacokinetic characteristics (linearity): dose- and time-dependent nonlinear pharmacokinetic characteristics; also recorded: dose-and time-dependent nonlinear pharmacokinetics; also recorded: dose- and time-dependent nonlinear pharmacokinetic profiles
[2]; all dose levels, unchanged drug in urine
  fe: less than 1%
CYP3A; human, probe testosterone
  fold induction at 0.3 µM: 1.9
  fold induction at 3 µM: 5
  fold induction at 30 µM: 8.8
CYP3A; summary in words
  CYP3A enzyme activation: exhibited a potential for CYP3A enzyme activation
[3]; both studies, all deemed drug-related
  epistaxis, occurrences: seven
[3]; single or multiple doses
  changes from baseline in clinical laboratory test results, vital signs, electrocardiography, computerized impedance cardiography, or physical examinations: no clinically meaningful changes from baseline
[3]; single or multiple doses 75–600 mg
  serious AEs: No serious AEs occurred
[3]; single or multiple doses 75–600 mg, healthy subjects
  tolerability: generally well tolerated without serious adverse events; also recorded: well tolerated
CYP3A4 mRNA
  fold induction at 0.3 µM: 2.3
  fold induction at 3 µM: 6.2
  fold induction at 30 µM: 6.2
[4]
  CYP3A4 messenger ribonucleic acid induction: CYP3A4 messenger ribonucleic acid induction
[5]
  CYP3A4 induction: moderately induced
[6]
  antiviral activity: low-nanomolar range
Tolerability [7]
  General disorder, all AEs, number of events: 2 (2)
  General disorder, all AEs, number of subjects: 2 (2)
  General disorder, drug-related AEs, number of events: 1 (1)
  General disorder, drug-related AEs, number of subjects: 1 (1)
  Genitourinary disorders, all AEs, number of events: 1 (1)
  Genitourinary disorders, all AEs, number of subjects: 1 (1)
  Genitourinary disorders, drug-related AEs, number of events: 1 (1)
  Genitourinary disorders, drug-related AEs, number of subjects: 1 (1)
  Musculoskeletal disorders, all AEs, number of events: 2
  Musculoskeletal disorders, all AEs, number of subjects: 1
  Musculoskeletal disorders, drug-related AEs, number of events: 2
  Musculoskeletal disorders, drug-related AEs, number of subjects: 1
  Nervous system disorders, all AEs, number of events: 4 (4)
  Nervous system disorders, all AEs, number of subjects: 4 (4)
  Nervous system disorders, drug-related AEs, number of events: 3 (3)
  Nervous system disorders, drug-related AEs, number of subjects: 3 (3)
  Ophthalmologic disorders, all AEs, number of events: 1 (1)
  Ophthalmologic disorders, all AEs, number of subjects: 1 (1)
  Oropharyngeal, respiratory, thoracic, and mediastinal disorders, all AEs, number of events: 7
  Oropharyngeal, respiratory, thoracic, and mediastinal disorders, all AEs, number of subjects: 6
  Oropharyngeal, respiratory, thoracic, and mediastinal disorders, drug-related AEs, number of events: 2
  Oropharyngeal, respiratory, thoracic, and mediastinal disorders, drug-related AEs, number of subjects: 1
  Total, all AEs, number of events: 17
[8]
  findings in in vivo safety pharmacology studies: no significant findings
[9]; 75 mg
  AUC(0-inf): 11100 ng·h/mL
  AUC(0-t): 8740 ng·h/mL
  Cmax: 440 ± 68.3 ng/mL
  Tmax: 2 h
  half-life: 29.3 ± 12.5 h
[9]; 150 mg
  AUC(0-inf): 14100 ng·h/mL
  AUC(0-t): 11200 ng·h/mL
  Cmax: 621 ± 105 ng/mL
  Tmax: 2 h
  half-life: 29.5 ± 11.9 h
[9]; 300 mg
  AUC(0-inf): 18100 ng·h/mL
  AUC(0-t): 14700 ng·h/mL
  Cmax: 832 ± 201 ng/mL
  Tmax: 2 h
  half-life: 31.2 ± 21.1 h
[9]; 600 mg
  AUC(0-inf): 33700 ng·h/mL
  AUC(0-t): 26800 ng·h/mL
  Cmax: 1250 ng/mL
  Tmax: 3 h
  half-life: 29.7 ± 15.6 h
[9]; single dose 75 mg
  AUC∞/dose: 148.6 ± 64.1 ng·mL·h/mg
  Cmax/dose: 5.9 ± 0.9 ng/mL/mg
  fe: 0.94±0.64%
[9]; single dose 150 mg
  AUC∞/dose: 94.3 ± 38.2 ng·mL·h/mg
  CL/F: 24.8 ± 5.6 L/h
  Cmax/dose: 4.1 ± 0.7 ng/mL/mg
  fe: 0.65±0.34%
[9]; single dose 300 mg
  AUC∞/dose: 60.4 ± 30.5 ng·mL·h/mg
  CL/F: 40.3 ± 12.4 L/h
  Cmax/dose: 2.8 ± 0.7 ng/mL/mg
  fe: 0.52±0.41%
[9]; single dose 600 mg
  AUC∞/dose: 56.2 ± 31.1 ng·mL·h/mg
  CL/F: 50.0 ± 21.9 L/h
  Cmax/dose: 2.1 ± 0.7 ng/mL/mg
  fe: 0.25±0.17%
Tolerability [10]; multiple doses
  Gastrointestinal disorders, all AEs, number of events: 3 (3)
  Gastrointestinal disorders, all AEs, number of subjects: 3 (3)
  Gastrointestinal disorders, drug-related AEs, number of events: 3 (3)
  Gastrointestinal disorders, drug-related AEs, number of subjects: 3 (3)
  Nervous system disorders, all AEs, number of events: 4 (4)
  Nervous system disorders, all AEs, number of subjects: 4 (4)
  Nervous system disorders, drug-related AEs, number of events: 4 (4)
  Nervous system disorders, drug-related AEs, number of subjects: 4 (4)
  Oropharyngeal, respiratory, thoracic, and mediastinal disorders, all AEs, number of events: 13
  Oropharyngeal, respiratory, thoracic, and mediastinal disorders, all AEs, number of subjects: 12
  Oropharyngeal, respiratory, thoracic, and mediastinal disorders, drug-related AEs, number of events: 9
  Oropharyngeal, respiratory, thoracic, and mediastinal disorders, drug-related AEs, number of subjects: 8
  Skin and subcutaneous tissue disorders, all AEs, number of events: 4
  Skin and subcutaneous tissue disorders, all AEs, number of subjects: 3
  Skin and subcutaneous tissue disorders, drug-related AEs, number of events: 1 (1)
  Skin and subcutaneous tissue disorders, drug-related AEs, number of subjects: 1 (1)
  Total, drug-related AEs, number of subjects: 16
Tolerability [10]; multiple-dose study
  epistaxis, occurrences: five
  epistaxis, subjects: four
Multiple-dose; 75 mg once daily
  steady state attained: > 4 days
Multiple-dose; 600 mg dose group
  accumulation after multiple doses: 0.6 fold
Multiple-dose; 150–600 mg once daily
  steady state attained: > 6 days
Multiple-dose; multiple doses 75 mg
  Accumulation index: 1.1±0.2
  AUCτ,ss/dose: 49.3 ± 13.4 ng·mL·h/mg
  CL/F: 21.5 ± 5.4 L/h
  Cmax,ss/dose: 5.1 ± 1.7 ng/mL/mg
  fe: 0.52±0.40%
Multiple-dose; multiple doses 150 mg
  Accumulation index: 1.1±0.5
  AUCτ,ss/dose: 55.0 ± 27.1 ng·mL·h/mg
  CL/F: 22.3 ± 10.2 L/h
  Cmax,ss/dose: 4.9 ± 1.7 ng/mL/mg
  fe: 0.75±0.52%
Multiple-dose; multiple doses 300 mg
  Accumulation index: 0.9±0.2
  AUCτ,ss/dose: 22.7 ± 6.3 ng·mL·h/mg
  CL/F: 48.0 ± 17.6 L/h
  Cmax,ss/dose: 2.4 ± 0.6 ng/mL/mg
  fe: 0.28±0.15%
Multiple-dose; multiple doses 600 mg
  Accumulation index: 0.6 and 0.6±0.1
  AUCτ,ss/dose: 17.1 ± 9.5 ng·mL·h/mg
  CL/F: 71.9 ± 28.1 L/h
  Cmax,ss/dose: 1.8 ± 0.8 ng/mL/mg
  fe: 0.18±0.12%

## O=C1Nc2ccc(Cl)cc2[C@@](C#CC2CC2)(C(F)(F)F)O1 [efavirenz]
[1]
  autoinduction phenomenon: autoinduction phenomenon has also been observed
[1]; single oral administration 100–1,600 mg
  dose proportionality of Cmax or AUC: increased less than dose-proportionally
